Literature values, collected in patent publication US20040253692A1, “Streptomyces sp. CJPV975652 capable of converting compactin to pravastatin and method for producing pravastatin using the same” (priority 2003, published 2004).

Assays:
[1] = daily dosage of 5-10 mg for 3 months
[2] = molecular target: T1, HMG-CoA reductase (Homo sapiens, UniProt P04035); settings: compared with compactin
T1 sequence (P04035 1-888): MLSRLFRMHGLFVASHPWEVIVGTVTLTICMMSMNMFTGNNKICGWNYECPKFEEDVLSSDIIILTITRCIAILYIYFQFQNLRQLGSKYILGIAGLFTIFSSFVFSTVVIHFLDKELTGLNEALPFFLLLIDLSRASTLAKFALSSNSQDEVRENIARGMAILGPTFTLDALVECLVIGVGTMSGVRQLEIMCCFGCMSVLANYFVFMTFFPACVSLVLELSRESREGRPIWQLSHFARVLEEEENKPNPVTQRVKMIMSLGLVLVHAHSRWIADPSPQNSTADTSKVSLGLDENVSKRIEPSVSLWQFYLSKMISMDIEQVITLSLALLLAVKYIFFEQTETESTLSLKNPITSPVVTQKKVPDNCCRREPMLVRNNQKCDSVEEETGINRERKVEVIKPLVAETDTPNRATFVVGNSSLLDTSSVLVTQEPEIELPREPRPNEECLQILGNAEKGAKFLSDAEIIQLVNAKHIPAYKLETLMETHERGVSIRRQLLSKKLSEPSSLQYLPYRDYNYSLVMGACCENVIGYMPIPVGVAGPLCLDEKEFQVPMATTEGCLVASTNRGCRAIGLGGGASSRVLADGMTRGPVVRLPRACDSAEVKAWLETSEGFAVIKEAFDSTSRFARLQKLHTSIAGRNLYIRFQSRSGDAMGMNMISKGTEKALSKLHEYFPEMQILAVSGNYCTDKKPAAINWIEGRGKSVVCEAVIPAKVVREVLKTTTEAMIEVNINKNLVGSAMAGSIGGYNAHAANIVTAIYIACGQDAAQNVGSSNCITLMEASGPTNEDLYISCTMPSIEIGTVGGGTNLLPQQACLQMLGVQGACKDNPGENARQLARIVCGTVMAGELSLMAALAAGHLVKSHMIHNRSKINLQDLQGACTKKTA

## CC[C@H](C)C(=O)O[C@H]1C[C@H](O)C=C2C=C[C@H](C)[C@H](CC[C@@H](O)C[C@@H](O)CC(=O)O)[C@H]21 [pravastatin]
[1]
  reduction of LDL-cholesterol level: 20-40%
  reduction of total cholesterol level: 20-40%
[2]
  effectiveness as a HMG-CoA reductase inhibitor: more effective than compactin
